Among the data in ChEMBL document CHEMBL4811216, “Chemotherapy for human schistosomiasis: how far have we come? What's new? Where do we go from here?” (RSC Med Chem, 2020) are Activity, LC50 and IC50 values, retold here.

For test [1], the system named is Schistosoma mansoni. Put plainly: Schistosomicidal-activity against Schistosoma mansoni LE assessed as seperation of worm couples at 25 uM measured within 120 hrs relative to control. It is filed as functional.
Test [2] relates to Schistosoma mansoni. Put plainly: Schistosomicidal-activity against Schistosoma mansoni LE assessed as reduction in motor activity at 50 uM measured after 120 hrs relative to control. It is filed as functional. More on the design: scale not given: the % may be the effect or the level left.
Test [3] concerns Schistosoma mansoni. Put plainly: Antischistosomal activity against adult Schistosoma mansoni LE assessed as reduction in motor activity at 50 uM measured after 24 hrs by inverted microscopy relative to control. More on the design: scale not given: the % may be the effect or the level left. In kind it is functional.
The test system of test [4] is Schistosoma mansoni. Put plainly: Antischistosomal activity against adult Schistosoma mansoni LE assessed as reduction in motor activity at 10 uM measured after 24 hrs by inverted microscopy relative to control. More on the design: scale not given: the % may be the effect or the level left. It is filed as functional.
The subject of test [5] is Schistosoma mansoni. Put plainly: Antischistosomal activity against adult Schistosoma mansoni LE assessed as seperation of male and female worms at 10 uM measured after 24 hrs by inverted microscopy relative to control. In kind it is functional.
In test [6] the test system is Schistosoma mansoni. Put plainly: Antischistosomal activity against female Schistosoma mansoni LE incubated for 24 hrs by MTT assay. It is filed as functional. On the technique in general: Tetrazolium dyes change colour on reduction, which living cells bring about.
Test [7] has as its system Schistosoma mansoni. Put plainly: Antischistosomal activity against male Schistosoma mansoni LE incubated for 24 hrs by MTT assay. It is filed as functional.
The subject of a further test is CHO-K1. Put plainly: Cytotoxicity against CHO-K1 cells incubated for 24 hrs by colorimetric assay. The following applies: Cricetulus griseus, CHO-K1, 24 h. In kind it is functional, cell-based.
In test [8] the test system is Schistosoma mansoni. Briefly: Antischistosomal activity against Schistosoma mansoni LE assessed as reduction in worm motor activity at 100 uM measured after 72 hrs relative to control. In kind it is functional. Also on record: scale not given: the % may be the effect or the level left.
For test [9], the system named is Schistosoma mansoni. Briefly: Antischistosomal activity against Schistosoma mansoni LE assessed as worm mortality at 200 uM measured after 24 hrs relative to control. In kind it is functional.
Test [10] deals with Schistosoma mansoni. Put plainly: Antischistosomal activity against Schistosoma mansoni at 50 uM measured after 120 hrs relative to control. In kind it is functional.
The test system of test [11] is Schistosoma mansoni. Briefly: Antischistosomal activity against Schistosoma mansoni at 50 uM measured after 96 hrs relative to control. In kind it is functional.
Test [12] has as its system Schistosoma mansoni. Briefly: Antischistosomal activity against Schistosoma mansoni Puerto Rican schistosomula assessed as effect on worm phenotype measured after 72 hrs. In kind it is functional, organism-based.
Test [13] concerns Schistosoma mansoni. Put plainly: Antischistosomal activity against Schistosoma mansoni Puerto Rican schistosomula assessed as effect on worm motility measured after 72 hrs. In kind it is functional, organism-based.
The test system of test [14] is Schistosoma mansoni. Briefly: Antischistosomal activity against juvenile Schistosoma mansoni Puerto Rican incubated for 72 hrs by microscopic method. It is filed as functional, organism-based.
Test [15] relates to Schistosoma mansoni. Put plainly: Antischistosomal activity against adult Schistosoma mansoni Puerto Rican incubated for 72 hrs by microscopic method. It is filed as functional, organism-based.

Turning to `COc1cc([C@@H]2OC(=O)[C@@H]3[C@H]2C(=O)O[C@H]3c2ccc(O)c(OC)c2)ccc1O`, the Activity in the test on Schistosoma mansoni [1] and in the test with Schistosoma mansoni [2] was 25% each time.

As for `COc1cc(C[C@@H]2C(=O)OC[C@H]2Cc2cc(OC)c3c(c2)OCO3)cc(OC)c1OC`, the Activity in the test on Schistosoma mansoni [3] is recorded as above 75%; in the test on Schistosoma mansoni [4], 100%; with Schistosoma mansoni [5] it was above 85%.

By LC50 is commonly meant the concentration lethal to half of the exposed cells or organisms. For orientation: IC50 means the concentration at which inhibition is half-maximal. Regarding `C=CC(C)(C)c1cc(/C=C/C(=O)c2ccc(O)cc2)c(OC)cc1O` [LICOAGROCHACONE A], the LC50 turned out to be 9.12 µM with Schistosoma mansoni [6] and 9.52 µM in the test on Schistosoma mansoni [7]. Also, inhibition in the test on CHO-K1 was half-maximal at 508 µM (IC50).

With `COC(=O)/C=C/c1ccc2c(c1)[C@@H](C(=O)OC)[C@H](c1ccc(OC(C)=O)cc1)O2`, the Activity with Schistosoma mansoni [8] and in the test on Schistosoma mansoni [9] was 100% each time.

Turning to `CN(c1ccc(F)cc1)N(C)C1NC(=O)N(Cc2ccc(Cl)cc2)C1=S` (stereo unspecified), the Activity in the test on Schistosoma mansoni [10] and in the test on Schistosoma mansoni [11] was 100% throughout.

Take `CC1(C)CCC[C@]2(C)C(CC[C@@](C)(O)/C=C/c3ccc(F)cc3)[C@](C)(O)CC[C@@H]12` (stereo partly specified): the IC50 with Schistosoma mansoni [12] is below 2 µM; in the test on Schistosoma mansoni [13], below 2 µM; in the test on Schistosoma mansoni [14], below 2 µM; in the test on Schistosoma mansoni [15], 9.4 µM.
